Measured values from PMC12551014 (Journal of Enzyme Inhibition and Medicinal Chemistry, 2025).

Tests used:
[1] = target: T1, murine sEH (Mus musculus, UniProt P34914); test: Enzymatic sEH activity assay; format: biochemical
T1 sequence (P34914 1-554): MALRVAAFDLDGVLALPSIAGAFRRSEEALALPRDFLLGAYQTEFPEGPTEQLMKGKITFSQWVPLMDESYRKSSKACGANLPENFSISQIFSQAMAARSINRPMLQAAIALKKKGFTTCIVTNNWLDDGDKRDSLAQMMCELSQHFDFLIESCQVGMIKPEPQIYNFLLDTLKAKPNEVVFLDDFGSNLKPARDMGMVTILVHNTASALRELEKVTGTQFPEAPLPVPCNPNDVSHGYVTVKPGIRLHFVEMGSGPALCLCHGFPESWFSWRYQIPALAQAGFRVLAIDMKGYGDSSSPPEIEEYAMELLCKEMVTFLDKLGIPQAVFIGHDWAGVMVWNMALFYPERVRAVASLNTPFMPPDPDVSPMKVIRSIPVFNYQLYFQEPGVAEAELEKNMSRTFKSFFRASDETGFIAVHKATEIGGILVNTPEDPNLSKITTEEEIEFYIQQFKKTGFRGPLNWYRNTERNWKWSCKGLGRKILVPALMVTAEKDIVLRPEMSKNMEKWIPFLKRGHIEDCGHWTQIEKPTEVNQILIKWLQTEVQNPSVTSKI

[2] = Microsomal stability, human; format: in vitro ADME; details: after 60 min, pooled human microsomes, NADPH, 37 °C
[3] = Microsomal stability, mouse; format: in vitro ADME; details: after 60 min, pooled mouse microsomes, NADPH, 37 °C
[4] = target: CYP2C9 (Homo sapiens, UniProt P11712); test: Cytochrome P450 inhibition assay, CYP2C9; format: biochemical; details: probe 7-methoxy-4-(trifluoromethyl)coumarin
[5] = target: CYP2D6 (Homo sapiens, UniProt P10635); test: Cytochrome P450 inhibition assay, CYP2D6; format: biochemical
[6] = target: CYP3A4 (Homo sapiens, UniProt P08684); test: Cytochrome P450 inhibition assay, CYP3A4; format: biochemical; details: probe dibenzylfluorescein (DBF)
[7] = predicted BBB permeation class
[8] = target: T2, human sEH (Homo sapiens, UniProt P34913); test: Enzymatic sEH activity assay; format: biochemical
T2 sequence (P34913 1-555): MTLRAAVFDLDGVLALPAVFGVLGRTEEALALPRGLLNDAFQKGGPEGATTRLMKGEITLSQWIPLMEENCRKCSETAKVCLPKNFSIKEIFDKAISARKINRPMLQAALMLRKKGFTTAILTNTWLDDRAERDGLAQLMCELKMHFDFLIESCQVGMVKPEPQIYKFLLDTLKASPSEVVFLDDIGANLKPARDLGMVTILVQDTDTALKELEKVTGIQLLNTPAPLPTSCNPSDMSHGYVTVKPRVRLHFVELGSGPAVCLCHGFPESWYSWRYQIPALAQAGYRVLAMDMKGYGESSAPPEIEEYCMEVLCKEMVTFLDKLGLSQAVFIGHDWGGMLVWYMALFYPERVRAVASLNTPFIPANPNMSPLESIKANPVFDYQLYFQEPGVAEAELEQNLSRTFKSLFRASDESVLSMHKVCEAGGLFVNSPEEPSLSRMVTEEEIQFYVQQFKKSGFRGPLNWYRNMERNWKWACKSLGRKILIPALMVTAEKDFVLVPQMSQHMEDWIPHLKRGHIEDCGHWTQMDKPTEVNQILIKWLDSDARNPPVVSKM

[9] = target: hERG (Homo sapiens, UniProt Q12809); test: hERG inhibition assay; format: cell-based; details: CHO cells transfected with hERG (CHO hERG-Duo cell line)
[10] = test system: SH-SY5Y cells; test: Cytotoxicity in SH-SY5Y cells; format: cell-based, human; details: 100 µM, MTT and PI assays
[11] = target: T3, human soluble epoxide hydrolase (hsEH) (Homo sapiens, UniProt P34913); test: sEH immunoblotting in HEK293 cells; format: cell-based; details: HEK293, 4 h treatment, 10-fold titration 10 nM to 10 µM
T3 sequence (P34913 1-555): T2 sequence (P34913 1-555)

[12] = Pharmacokinetic study in plasma and brain, subcutaneous; format: in vivo, male CD1 mice; details: for AUC: male CD1 mice, 5 mg/kg single dose s.c.
[13] = test system: paclitaxel-induced tactile allodynia; test: Paclitaxel-induced neuropathic pain, mechanical allodynia; format: in vivo, female WT-CD1 mice
[14] = male, CD1, mouse, plasma, sc, 5 mg/kg

CYP2D6, sequence (P10635 whole entry): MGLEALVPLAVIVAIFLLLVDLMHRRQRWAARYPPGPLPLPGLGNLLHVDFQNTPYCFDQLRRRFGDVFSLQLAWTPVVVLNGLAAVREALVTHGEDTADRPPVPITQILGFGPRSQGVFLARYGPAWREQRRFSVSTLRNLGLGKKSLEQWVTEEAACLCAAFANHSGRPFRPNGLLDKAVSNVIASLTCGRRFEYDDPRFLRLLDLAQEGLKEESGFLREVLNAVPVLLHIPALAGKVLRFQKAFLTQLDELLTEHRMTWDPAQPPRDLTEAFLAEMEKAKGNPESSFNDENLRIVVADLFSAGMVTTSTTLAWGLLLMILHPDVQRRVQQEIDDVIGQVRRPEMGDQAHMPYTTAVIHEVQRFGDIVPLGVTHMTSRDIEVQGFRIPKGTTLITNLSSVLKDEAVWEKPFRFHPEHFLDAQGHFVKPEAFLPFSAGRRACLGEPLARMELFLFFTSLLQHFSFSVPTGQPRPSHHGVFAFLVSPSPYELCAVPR
CYP3A4, sequence (P08684 whole entry): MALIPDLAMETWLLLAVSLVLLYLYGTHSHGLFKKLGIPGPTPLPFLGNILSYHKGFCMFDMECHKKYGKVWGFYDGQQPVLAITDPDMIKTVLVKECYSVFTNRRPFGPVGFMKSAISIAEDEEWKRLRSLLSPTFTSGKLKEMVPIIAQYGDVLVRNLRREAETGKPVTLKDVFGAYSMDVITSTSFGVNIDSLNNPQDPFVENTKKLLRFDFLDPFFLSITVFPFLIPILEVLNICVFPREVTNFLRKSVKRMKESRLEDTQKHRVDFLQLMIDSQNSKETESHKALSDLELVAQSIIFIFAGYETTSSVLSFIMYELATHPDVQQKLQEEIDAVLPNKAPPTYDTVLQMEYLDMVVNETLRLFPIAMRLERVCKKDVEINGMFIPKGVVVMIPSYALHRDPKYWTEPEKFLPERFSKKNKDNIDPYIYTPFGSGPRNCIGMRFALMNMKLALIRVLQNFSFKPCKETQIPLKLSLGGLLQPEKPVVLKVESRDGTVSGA
CYP2C9, sequence (P11712 whole entry): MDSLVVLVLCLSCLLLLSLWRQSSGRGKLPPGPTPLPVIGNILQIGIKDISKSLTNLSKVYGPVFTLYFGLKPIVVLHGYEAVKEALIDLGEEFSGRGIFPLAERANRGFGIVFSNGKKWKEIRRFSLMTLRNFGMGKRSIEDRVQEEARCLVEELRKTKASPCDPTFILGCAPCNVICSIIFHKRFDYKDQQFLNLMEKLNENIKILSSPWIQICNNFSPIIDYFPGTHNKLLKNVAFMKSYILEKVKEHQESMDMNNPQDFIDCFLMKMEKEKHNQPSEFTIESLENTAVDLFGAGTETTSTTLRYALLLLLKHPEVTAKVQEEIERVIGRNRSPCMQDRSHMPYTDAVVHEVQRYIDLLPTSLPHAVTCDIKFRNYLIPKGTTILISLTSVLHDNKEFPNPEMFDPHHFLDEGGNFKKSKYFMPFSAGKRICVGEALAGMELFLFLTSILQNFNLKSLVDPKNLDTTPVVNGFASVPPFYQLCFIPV
hERG, sequence (Q12809 whole entry): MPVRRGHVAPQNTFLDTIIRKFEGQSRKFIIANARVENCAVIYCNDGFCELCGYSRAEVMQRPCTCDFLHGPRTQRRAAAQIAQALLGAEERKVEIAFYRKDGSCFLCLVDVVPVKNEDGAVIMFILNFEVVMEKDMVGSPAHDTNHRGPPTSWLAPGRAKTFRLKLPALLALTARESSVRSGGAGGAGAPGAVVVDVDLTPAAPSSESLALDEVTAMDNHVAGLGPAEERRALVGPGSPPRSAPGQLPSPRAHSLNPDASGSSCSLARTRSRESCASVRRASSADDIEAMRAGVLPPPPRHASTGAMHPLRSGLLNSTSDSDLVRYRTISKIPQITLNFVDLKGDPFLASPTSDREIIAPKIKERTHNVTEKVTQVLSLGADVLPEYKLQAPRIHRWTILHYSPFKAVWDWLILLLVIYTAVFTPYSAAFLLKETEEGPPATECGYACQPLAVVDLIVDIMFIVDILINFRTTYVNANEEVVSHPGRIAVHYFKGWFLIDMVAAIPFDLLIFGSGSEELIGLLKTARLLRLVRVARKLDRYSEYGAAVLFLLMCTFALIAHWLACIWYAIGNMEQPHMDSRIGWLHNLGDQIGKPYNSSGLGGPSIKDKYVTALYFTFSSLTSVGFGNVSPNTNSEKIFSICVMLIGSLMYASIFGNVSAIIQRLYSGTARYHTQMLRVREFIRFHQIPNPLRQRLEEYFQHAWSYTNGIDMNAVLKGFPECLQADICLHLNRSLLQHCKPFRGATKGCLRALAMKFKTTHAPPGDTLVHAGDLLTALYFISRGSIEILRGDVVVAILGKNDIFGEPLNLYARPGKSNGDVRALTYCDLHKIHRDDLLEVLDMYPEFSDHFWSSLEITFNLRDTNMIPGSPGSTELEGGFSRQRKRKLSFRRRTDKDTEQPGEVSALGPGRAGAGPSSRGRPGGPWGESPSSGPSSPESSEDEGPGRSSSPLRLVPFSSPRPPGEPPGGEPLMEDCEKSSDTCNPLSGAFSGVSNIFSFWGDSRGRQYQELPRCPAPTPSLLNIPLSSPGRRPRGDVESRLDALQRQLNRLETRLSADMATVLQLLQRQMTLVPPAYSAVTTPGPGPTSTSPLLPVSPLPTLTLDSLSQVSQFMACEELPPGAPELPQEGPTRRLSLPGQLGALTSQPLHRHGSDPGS

SMILES | IC50 [1] | Microsomal stability Human, percentage of remaining compound [2] | Microsomal stability Mouse, percentage of remaining compound [3] | inhibition at 10 µM [4] | inhibition at 10 µM [5] | inhibition at 10 µM [6] | IC50 [8] | further results
CC(=O)N1CCC(NC(=O)NC23CC4CC(C)(CC(C2)c2c(F)cccc24)C3)CC1 (stereo not drawn) [Compound 13, 1-(1-Acetylpiperidin-4-yl)-3–(1-fluoro-9-methyl-5,6,8,9,10,11-hexahydro-7H-5,9:7,11-dimethanobenzo[9]annulen-7-yl)urea] | 0.8 nM | 16% | 1% | 6 ± 3% | 1 ± 2% | 9 ± 3% | – | PAMPA-BBB [7]: CNS +
CC(=O)N1CCC(NC(=O)NC23CC4CC(C)(CC(C2)c2cc(F)ccc24)C3)CC1 (stereo not drawn) [Compound 14, 1-(1-Acetylpiperidin-4-yl)-3–(2-fluoro-9-methyl-5,6,8,9,10,11-hexahydro-7H-5,9:7,11-dimethanobenzo[9]annulen-7-yl)urea] | 0.6 nM | 22% | 4% | 12 ± 2% | 5 ± 2% | 13 ± 3% | – | PAMPA-BBB [7]: CNS +
COc1ccc2c(c1)C1CC3(C)CC2CC(NC(=O)NC2CCN(C(C)=O)CC2)(C1)C3 (stereo not drawn) [Compound 15, 1-(1-Acetylpiperidin-4-yl)-3–(2-methoxy-9-methyl-5,6,8,9,10,11-hexahydro-7H-5,9:7,11-dimethanobenzo[9]annulen-7-yl)urea] | 1.7 nM | 33% | 32% | 12 ± 3% | 8 ± 2% | 12 ± 4% | – | –
CC(=O)c1ccc2c(c1)C1CC3(C)CC2CC(NC(=O)NC2CCN(C(C)=O)CC2)(C1)C3 (stereo not drawn) [Compound 16, 1-(2-Acetyl-9-methyl-5,6,8,9,10,11-hexahydro-7H-5,9:7,11-dimethanobenzo[9]annulen-7-yl)-3–(1-acetylpiperidin-4-yl)urea] | 6.7 nM | 92% | 70% | 9 ± 3% | 7 ± 2% | 3 ± 2% | 4.1 nM | –
CC(=O)N1CCC(NC(=O)NC23CC4CC(C)(CC(C2)c2cc([N+](=O)[O-])ccc24)C3)CC1 (stereo not drawn) [Compound 17, 1-(1-Acetylpiperidin-4-yl)-3–(9-methyl-2-nitro-5,6,8,9,10,11-hexahydro-7H-5,9:7,11-dimethanobenzo[9]annulen-7-yl)urea] | 4.5 nM | 100% | 27% | 20 ± 4% | 8 ± 3% | 10 ± 1% | 4.5 nM | –
CC(=O)N1CCC(NC(=O)NC23CC4CC(C)(CC(C2)c2cc(N)ccc24)C3)CC1 (stereo not drawn) [Compound 18, 1-(1-Acetylpiperidin-4-yl)-3–(2-amino-9-methyl-5,6,8,9,10,11-hexahydro-7H-5,9:7,11-dimethanobenzo[9]annulen-7-yl)urea] | 17.1 nM | – | – | – | – | – | 25 nM | –
COc1cc2c(cc1OC)C1CC3(C)CC2CC(NC(=O)NC2CCN(C(C)=O)CC2)(C1)C3 [Compound 19, 1-(1-Acetylpiperidin-4-yl)-3–(2,3-dimethoxy-9-methyl-5,6,8,9,10,11-hexahydro-7H-5,9:7,11-dimethanobenzo[9]annulen-7-yl)urea] | 2.2 nM | 100% | 70% | 8 ± 1% | 2 ± 2% | 15 ± 4% | 1.3 nM | –
COc1cc2c(cc1OC)C1CC3(C)CC2CC(NC(=O)NC2CCN(C(=O)C4CCOCC4)CC2)(C1)C3 [Compound 20, 1-(2,3-Dimethoxy-9-methyl-5,6,8,9,10,11-hexahydro-7H-5,9:7,11-dimethanobenzo[9]annulen-7-yl)-3–(1-(tetrahydro-2H-pyran-4-carbonyl)piperidin-4-yl)urea] | 1.9 nM | 80% | 96% | 22 ± 2% | 36 ± 5% | 43 ± 1% | 0.4 nM | inhibition at 30 min, 10 µM [9]: 11 ± 2%
COc1cc2c(cc1OC)C1CC3(F)CC2CC(NC(=O)NC2CCN(C(=O)C4CCOCC4)CC2)(C1)C3 [Compound 21, 1-(9-Fluoro-2,3-dimethoxy-5,6,8,9,10,11-hexahydro-7H-5,9:7,11-dimethanobenzo[9]annulen-7-yl)-3–(1-(tetrahydro-2H-pyran-4-carbonyl)piperidin-4-yl)urea] | 2.9 nM | 100% | 86% | 8 ± 1% | 15 ± 4% | 1 ± 1% | – | inhibition at 30 min, 10 µM [9]: 9 ± 1%; Cytotoxicity at the highest concentration tested [10]: not cytotoxic; hsEH protein levels (degradation) [11]: No significant degradation was observed; Compound level in brain samples ([12]; 5 mg/kg s.c., multiple time points 0.08–18 h): undetectable in all brain samples; Cmax [12, 14]: 1600 ng/mL; Tmax [12, 14]: 2 h; AUC ([12]; male, CD1, mouse, plasma, sc, 5 mg/kg, AUC^inf): 5600 ng·h/mL; AUC ([12]; male, CD1, mouse, plasma, sc, 5 mg/kg, AUC^last): 5500 ng·h/mL; Prevention of development of paclitaxel-induced neuropathic pain ([13]; 5 mg/kg s.c. 30 min before each paclitaxel dose, tested at 10, 14, 21 days): showed no signs of sensory hypersensitivity at any time point tested; Dose achieving full / maximum antiallodynic effect ([13]; s.c., paclitaxel-treated mice): 5 mg/kg; Time of peak / maximum antiallodynic effect after administration ([13]; s.c., paclitaxel-treated mice): 90 min; PAMPA-BBB [7]: CNS −
C#CCOc1ccccc1CCCCCC(=O)NS(C)(=O)=O [MS-PPOH, N-methanesulfonyl-6–(2-proparyloxyphenyl)hexanamide, reference compound] | – | – | – | – | – | – | – | Effect on paclitaxel-induced tactile allodynia (alone) ([13]; 20 mg/kg s.c., day 10 after paclitaxel): did not alter paclitaxel-induced tactile allodynia; Effect of MS-PPOH on the antiallodynic effect of 21 ([13]; MS-PPOH 20 mg/kg s.c. 5 min before 21 5 mg/kg s.c., measured at 90 min): fully abolished the effect of compound 21
NCC1(CC(=O)O)CCCCC1 [gabapentin, reference compound] | – | – | – | – | – | – | – | Dose achieving full / maximum antiallodynic effect ([13]; s.c., paclitaxel-treated mice): 20 mg/kg
